These results are taken from patent publication US12145929B2, “Piperidine derivative and pharmaceutical composition for inhibiting autotaxin comprising same” (NEXTGEN BIOSCIENCE CO., LTD., priority 2021, dated 2024).

For the test, the target named is human Autotaxin protein (Homo sapiens, UniProt Q13822). In words: Evaluation of inhibitory activity against human Autotaxin protein (18:1 LysoPC substrate, choline assay kit, absorbance 570 nm). Type of test: biochemical. The conditions noted are these: compound at 500 nM, 2 hours at 37° C. The protocol: The solution of each synthesized compound (80 uM, 100% dimethyl sulfoxide) was sequentially diluted 5 times with dimethyl sulfoxide to prepare 6 concentrations. Each concentration of compound was diluted two-fold with 1× test buffer (50 mM Tris-Cl (pH 8.0), 5 mM KCl, 1 mM CaCl2), 1 mM MgCl2, 140 mM NaCl, deionized water, 1 mg/mL BSA), and 1 uL (1.25% dimethyl sulfoxide) of this diluted mixture was dispensed into each well of a 96 well clear round bottom plate. 9 uL of 1× test buffer were added to each well, followed by the addition of 20 uL of 240 nM human Autotaxin protein (buffer: 50 mM Tris-HCl, pH 8.0, with 150 mM sodium chloride and 20% glycerol). 10 uL of sonicated 360 uM 18:1 LysoPC (diluted with 1× test buffer) were added to each well. The reaction was performed for 2 hours in a shaking incubator at 37° C., and a secondary reaction mixture (choline assay kit, KA1662) (65 uL of 1× test buffer: 1 uL of choline oxidase: 1 uL of dye probe) was prepared. 60 uL of the secondary reaction mixture were added to the reaction plate and reacted on a shaker for 30 minutes. Using a SpectraMax iD3 microplate reader, the absorbance was measured at a wavelength of 570 nm. The percentage of inhibition activity (% inhibition) was calculated by the Formula: (1−Absorbancetestgroup/Absorbancecontrol group)×100.
On to `c1ccc2c(c1)CC(Nc1ncc(-c3nnc(N4CCC(c5cnn[nH]5)CC4)o3)cn1)C2` [Example 1, 5-(5-(4-(1H-1,2,3-Triazol-5-yl)piperidin-1-yl)-1,3,4-oxadiazol-2-yl)-N-(2,3-dihydro-1H-inden-2-yl)pyrimidin-2-amine], for which the inhibition at 0.5 µM was 99%.
For the molecule `Fc1ccc2c(c1)CC(Nc1ncc(-c3nnc(N4CCC(c5cnn[nH]5)CC4)o3)cn1)C2` (stereo not drawn) [Example 2, 5-(5-(4-(1H-1,2,3-Triazol-5-yl)piperidin-1-yl)-1,3,4-oxadiazol-2-yl)-N-(5-fluoro-2,3-dihydro-1H-inden-2-yl)pyrimidin-2-amine], 0.5 µM produced 100% inhibition.
`Clc1ccc2c(c1)CC(Nc1ncc(-c3nnc(N4CCC(c5cnn[nH]5)CC4)o3)cn1)C2` (stereo not drawn) [Example 3, 5-(5-(4-(1H-1,2,3-Triazol-5-yl)piperidin-1-yl)-1,3,4-oxadiazol-2-yl)-N-(5-chloro-2,3-dihydro-1H-inden-2-yl)pyrimidin-2-amine] gave an inhibition at 0.5 µM of 100%.
In the case of `Brc1ccc2c(c1)CC(Nc1ncc(-c3nnc(N4CCC(c5cnn[nH]5)CC4)o3)cn1)C2` (stereo not drawn) [Example 4, 5-(5-(4-(1H-1,2,3-Triazol-5-yl)piperidin-1-yl)-1,3,4-oxadiazol-2-yl)-N-(5-bromo-2,3-dihydro-1H-inden-2-yl)pyrimidin-2-amine], the inhibition at 0.5 µM was found to be 90%.
In turn, `Fc1cc2c(cc1F)CC(Nc1ncc(-c3nnc(N4CCC(c5cnn[nH]5)CC4)o3)cn1)C2` [Example 5, 5-(5-(4-(1H-1,2,3-Triazol-5-yl)piperidin-1-yl)-1,3,4-oxadiazol-2-yl)-N-(5,6-difluoro-2,3-dihydro-1H-inden-2-yl)pyrimidin-2-amine] displayed an inhibition at 0.5 µM of 100%.
Consider `Clc1cc2c(cc1Cl)CC(Nc1ncc(-c3nnc(N4CCC(c5cnn[nH]5)CC4)o3)cn1)C2` [Example 6, 5-(5-(4-(1H-1,2,3-Triazol-5-yl)piperidin-1-yl)-1,3,4-oxadiazol-2-yl)-N-(5,6-dichloro-2,3-dihydro-1H-inden-2-yl)pyrimidin-2-amine], for which 0.5 µM produced 91% inhibition.
With `c1cnc2c(n1)CC(Nc1ncc(-c3nnc(N4CCC(c5cnn[nH]5)CC4)o3)cn1)C2` [Example 7, N-(5-(5-(4-(1H-1,2,3-triazol-5-yl)piperidin-1-yl)-1,3,4-oxadiazol-2-yl)pyrimidin-2-yl)-6,7-dihydro-5H-cyclopenta[b]pyrazin-6-amine], the inhibition at 0.5 µM came to 40%.
As for `c1ccc2c(c1)CC(Nc1ccc(-c3nnc(N4CCC(c5cnn[nH]5)CC4)o3)nn1)C2` [Example 8, 6-(5-(4-(1H-1,2,3-Triazol-5-yl)piperidin-1-yl)-1,3,4-oxadiazol-2-yl)-N-(2,3-dihydro-1H-inden-2-yl)pyridazin-3-amine], at 0.5 µM the inhibition was 14%.
Same read-out and setting: under `c1ccc2c(c1)CC(Nc1ncc(-c3nnc(N4CCC(n5cncn5)CC4)o3)cn1)C2` [Example 9, 5-(5-(4-(1H-1,2,4-Triazol-1-yl)piperidin-1-yl)-1,3,4-oxadiazol-2-yl)-N-(2,3-dihydro-1H-inden-2-yl)pyrimidin-2-amine] stands 81%.
The same measure, in the same setting: under `Cc1ncn(C2CCN(c3nnc(-c4cnc(NC5Cc6ccccc6C5)nc4)o3)CC2)n1` [Example 10, N-(2,3-dihydro-1H-inden-2-yl)-5-(5-(4-(3-methyl-1H-1,2,4-triazol-1-yl)piperidin-1-yl)-1,3,4-oxadiazol-2-yl)pyrimidin-2-amine] stands 75%; under `CC1CC(c2cnn[nH]2)CCN1c1nnc(-c2cnc(NC3Cc4ccc(Br)cc4C3)nc2)o1` (stereo not drawn) [Example 11, N-(5-bromo-2,3-dihydro-1H-inden-2-yl)-5-(5-(2-methyl-4-(1H-1,2,3-triazol-5-yl)piperidin-1-yl)-1,3,4-oxadiazol-2-yl)pyrimidin-2-amine], 99%.
In turn, `Brc1ccc2c(c1)CC(Nc1ccc(-c3nnc(N4CCC(c5cnn[nH]5)CC4)o3)cn1)C2` (stereo not drawn) [Example 12, 5-(5-(4-(1H-1,2,3-Triazol-5-yl)piperidin-1-yl)-1,3,4-oxadiazol-2-yl)-N-(5-bromo-2,3-dihydro-1H-inden-2-yl)pyridin-2-amine] had an inhibition at 0.5 µM of 84%.
The same measure, in the same setting: under `Brc1ccc2c(c1)CC(Nc1cnc(-c3nnc(N4CCC(c5cnn[nH]5)CC4)o3)cn1)C2` (stereo not drawn) [Example 13, 5-(5-(4-(1H-1,2,3-Triazol-5-yl)piperidin-1-yl)-1,3,4-oxadiazol-2-yl)-N-(5-bromo-2,3-dihydro-1H-inden-2-yl)pyrazin-2-amine] stands 75%; under `Clc1cc(NC2Cc3ccc(Br)cc3C2)ncc1-c1nnc(N2CCC(c3cnn[nH]3)CC2)o1` (stereo not drawn) [Example 14, 5-(5-(4-(1H-1,2,3-Triazol-5-yl)piperidin-1-yl)-1,3,4-oxadiazol-2-yl)-N-(5-bromo-2,3-dihydro-1H-inden-2-yl)-4-chloropyridin-2-amine], 5%.
On to `Clc1cc(Cl)cc(CNc2ncc(-c3nnc(N4CCC(c5cnn[nH]5)CC4)o3)cn2)c1` [Example 15, 5-(5-(4-(1H-1,2,3-Triazol-5-yl)piperidin-1-yl)-1,3,4-oxadiazol-2-yl)-N-(3,5-dichlorobenzyl)pyrimidin-2-amine], for which the inhibition at 0.5 µM is 100%.
In the case of `Clc1cc(Cl)cc(CCNc2ncc(-c3nnc(N4CCC(c5cnn[nH]5)CC4)o3)cn2)c1` [Example 16, 5-(5-(4-(H-1,2,3-Triazol-5-yl)piperidin-1-yl)-1,3,4-oxadiazol-2-yl)-N-(3,5-dichlorophenethyl)pyrimidin-2-amine], the “inhibition (%) at 500 nM” value was 84%.
In turn, `O=C(CCc1cnc(NC2Cc3ccccc3C2)nc1)N1CCC(c2cnn[nH]2)CC1` [Example 17, 1-(4-(1H-1,2,3-Triazol-5-yl)piperidin-1-yl)-3-(2-((2,3-dihydro-1H-inden-2-yl)amino)pyrimidin-5-yl)propan-1-one] registered an inhibition at 0.5 µM of 92%.
On the same count and under the same terms, then `O=C(CCc1cnc(NC2Cc3ccccc3C2)nc1)N1CCC(c2cnc[nH]2)CC1` [Example 18, 1-(4-(1H-Imidazol-5-yl)piperidin-1-yl)-3-(2-((2,3-dihydro-1H-inden-2-yl)amino)pyrimidin-5-yl)propan-1-one], with 85%; and `O=C(CCCc1nnc(NC2Cc3ccccc3C2)s1)N1CCC(c2cnn[nH]2)CC1` [Example 19, 1-(4-(1H-1,2,3-Triazol-5-yl)piperidin-1-yl)-4-(5-((2,3-dihydro-1H-inden-2-yl)amino)-1,3,4-thiadiazol-2-yl)butan-1-one], with 43%; and `O=C(CCCc1nnc(NC2Cc3ccccc3C2)s1)N1CCC(c2cnc[nH]2)CC1` [Example 20, 1-(4-(1H-Imidazol-5-yl)piperidin-1-yl)-4-(5-((2,3-dihydro-1H-inden-2-yl)amino)-1,3,4-thiadiazol-2-yl)butan-1-one], with 14%.
With `O=C(CCCc1nnc(NC2Cc3ccccc3C2)o1)N1CCC(c2cnn[nH]2)CC1` [Example 21, 1-(4-(1H-1,2,3-Triazol-5-yl)piperidin-1-yl)-4-(5-((2,3-dihydro-1H-inden-2-yl)amino)-1,3,4-oxadiazol-2-yl)butan-1-one], the inhibition at 0.5 µM was 64%.
The same measure, in the same setting: under `O=C(CCCc1nnc(NC2Cc3ccccc3C2)o1)N1CCC(c2cnc[nH]2)CC1` [Example 22, 1-(4-(1H-Imidazol-5-yl)piperidin-1-yl)-4-(5-((2,3-dihydro-1H-inden-2-yl)amino)-1,3,4-oxadiazol-2-yl)butan-1-one] stands 17%; under `O=C(COCc1nnc(NC2Cc3ccccc3C2)s1)N1CCC(c2cnn[nH]2)CC1` [Example 23, 1-(4-(1H-1,2,3-Triazol-5-yl)piperidin-1-yl)-2-((5-((2,3-dihydro-1H-inden-2-yl)amino)-1,3,4-thiadiazol-2-yl)methoxy)ethanone], 20%.
For the molecule `Fc1cc2c(cc1F)CC(Nc1ncc(-c3nnc(N4CCC(c5nnc(C(F)(F)F)o5)CC4)o3)cn1)C2` [Example 24, N-(5,6-difluoro-2,3-dihydro-1H-inden-2-yl)-5-(5-(4-(5-(trifluoromethyl)-1,3,4-oxadiazol-2-yl)piperidin-1-yl)-1,3,4-oxadiazol-2-yl)pyrimidin-2-amine], the inhibition at 0.5 µM was 30.2%.
Turning to `Fc1cc2c(cc1F)CC(Nc1ncc(-c3nnc(N4CCC(c5nnc(C(F)F)o5)CC4)o3)cn1)C2` [Example 25, N-(5,6-difluoro-2,3-dihydro-1H-inden-2-yl)-5-(5-(4-(5-(difluoromethyl)-1,3,4-oxadiazol-2-yl)piperidin-1-yl)-1,3,4-oxadiazol-2-yl)pyrimidin-2-amine], the inhibition at 0.5 µM was 31.1%.
`Fc1cc2c(cc1F)CC(Nc1ncc(-c3nnc(N4CCC(c5ncon5)CC4)o3)cn1)C2` [Example 26, 5-(5-(4-(1,2,4-Oxadiazol-3-yl)piperidin-1-yl)-1,3,4-oxadiazol-2-yl)-N-(5,6-difluoro-2,3-dihydro-1H-inden-2-yl)pyrimidin-2-amine]: the inhibition at 0.5 µM came to 27.9%.
`Fc1cc2c(cc1F)CC(Nc1ncc(-c3nnc(N4CCC(c5nnco5)CC4)o3)cn1)C2` [Example 27, 5-(5-(4-(1,3,4-Oxadiazol-2-yl)piperidin-1-yl)-1,3,4-oxadiazol-2-yl)-N-(5,6-difluoro-2,3-dihydro-1H-inden-2-yl)pyrimidin-2-amine] yielded an inhibition at 0.5 µM of 29%.

By inhibition is commonly meant how much of the control response was suppressed. A lower inhibition goes with little suppression.
